Where two headings read alike, the source gives them in different places.

The target in this assay is canine TRPM8 (Canis lupus familiaris, UniProt Q1A7N1). Kind of assay: In Vitro Canine TRPM8 Functional Assay (Ca2+ fluorescence, icilin activation). Format: cell-based. As to conditions: for IC50: read-out: IC50; for inhibition at 0.2 µM: read-out: % Inh @ 0.2; for inhibition at 0.5 µM: compound at 0.5 μM, read-out: % Inh @ 0.5. A digest of the protocol: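 Eight-point dose-response curves, each point averaging quadruplicate wells, gave EC50 or IC50. Canine TRPM8-expressing HEK293 cells, dye-loaded (Calcium 3), were pre-exposed 5 min to compound, then challenged with icilin at roughly EC80; intracellular Ca2+ read by FLIPR or FDSS fluorescence.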
canine TRPM8, sequence (Q1A7N1 1-1104): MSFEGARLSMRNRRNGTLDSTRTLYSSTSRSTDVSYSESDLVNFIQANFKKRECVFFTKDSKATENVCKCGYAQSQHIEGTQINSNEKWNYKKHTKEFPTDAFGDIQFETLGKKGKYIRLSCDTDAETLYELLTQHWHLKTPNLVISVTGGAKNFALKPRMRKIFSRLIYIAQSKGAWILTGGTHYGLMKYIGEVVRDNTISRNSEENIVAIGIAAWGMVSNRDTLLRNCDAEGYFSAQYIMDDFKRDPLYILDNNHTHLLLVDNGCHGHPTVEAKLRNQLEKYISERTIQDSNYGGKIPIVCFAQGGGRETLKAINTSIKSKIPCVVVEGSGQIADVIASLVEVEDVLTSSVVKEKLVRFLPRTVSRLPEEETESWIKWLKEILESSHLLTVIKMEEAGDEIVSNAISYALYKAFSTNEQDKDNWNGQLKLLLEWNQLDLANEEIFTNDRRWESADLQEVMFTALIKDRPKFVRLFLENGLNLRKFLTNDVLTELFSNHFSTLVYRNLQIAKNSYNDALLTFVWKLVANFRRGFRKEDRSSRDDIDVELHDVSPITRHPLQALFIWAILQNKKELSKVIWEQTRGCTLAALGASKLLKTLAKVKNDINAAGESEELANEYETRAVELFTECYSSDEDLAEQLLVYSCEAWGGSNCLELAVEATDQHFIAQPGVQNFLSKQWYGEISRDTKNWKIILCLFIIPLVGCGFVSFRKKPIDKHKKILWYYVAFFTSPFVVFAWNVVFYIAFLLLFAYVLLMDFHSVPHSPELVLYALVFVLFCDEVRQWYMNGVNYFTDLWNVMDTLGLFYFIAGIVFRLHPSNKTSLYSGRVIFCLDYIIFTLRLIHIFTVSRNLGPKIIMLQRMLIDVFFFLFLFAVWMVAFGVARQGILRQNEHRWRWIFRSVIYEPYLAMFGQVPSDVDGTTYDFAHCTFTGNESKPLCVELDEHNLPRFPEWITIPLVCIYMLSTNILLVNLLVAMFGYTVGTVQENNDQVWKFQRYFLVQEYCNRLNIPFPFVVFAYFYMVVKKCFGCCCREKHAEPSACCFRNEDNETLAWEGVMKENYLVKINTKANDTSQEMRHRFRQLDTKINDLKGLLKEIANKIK

The mark [1] stands for this setting: HEK293 cells stably expressing canine TRPM8, icilin activation, eight-point dose-response.
Where [2] appears, read: compound at 0.2 μM, canine TRPM8, icilin activation.
Where [3] appears, read: 0.2 μM compound, HEK293 cells stably expressing canine TRPM8, icilin activation.
Setting [4] is: HEK293 cells stably expressing canine TRPM8, icilin activation, average of two or more determinations.
The mark [5] stands for this setting: canine TRPM8, icilin activation.

As to `CC1=C(N(CCCC(F)(F)F)S(=O)(=O)c2ccccc2)S(=O)(=O)c2ccccc21` [Compound 620, N-(3-Methyl-1,1-dioxo-benzo[b]thiophen-2-yl)-N-(4,4,4-trifluoro-butyl)-benzenesulfonamide], the IC50 under setting [1] stood at 23.4 nM. Further, the inhibition at 0.2 µM under setting [2] came to 101%.

Take `CC(=O)c1c(N(Cc2ccc(F)c(C(F)(F)F)c2)S(=O)(=O)c2ccccc2)sc2ccccc12` [Compound 314, N-(3-Acetyl-benzo[b]thiophen-2-yl)-N-(4-fluoro-3-trifluoromethyl-benzyl)-benzenesulfonamide]: under setting [1], the IC50 was 10 nM. For the same molecule, the inhibition at 0.2 µM under setting [2] came out at 102%.

As for `CC(=O)c1ccc(S(=O)(=O)N(Cc2ccc(F)c(C(F)(F)F)c2)c2cc3ccccc3s2)cc1` [Compound 308, N-(Benzo[b]thiophen-2-yl)-N-(4-fluoro-3-trifluoromethyl-benzyl)-4-acetyl-benzenesulfonamide], the IC50 under setting [1] turned out to be 69.8 nM. Also, the inhibition at 0.2 µM under setting [2] worked out at 92%.

`Cc1c(N(CCC2CC2)S(=O)(=O)c2ccc(C(=O)N[C@@H]3CCNC3)cc2)sc2ccccc12` [Compound 783, (R)-4-[(2-Cyclopropyl-ethyl)-(3-methyl-benzo[b]thiophen-2-yl)-sulfamoyl]-N-pyrrolidin-3-yl-benzamide]: under setting [2], the inhibition at 0.2 µM was found to be 38%.

For the molecule `O=S(=O)(CC(F)(F)F)N(Cc1ccc(F)c(C(F)(F)F)c1)c1cc2ccccc2s1` [Compound 697, N-(Benzo[b]thiophen-2-yl)-N-(4-fluoro-3-trifluoromethyl-benzyl)-2,2,2-trifluoro-ethanesulfonamide], the IC50 under setting [1] was found to be 64 nM. Moreover, the inhibition at 0.2 µM under setting [2] amounted to 92%.

As for `Cc1nccc(-c2cccc(S(=O)(=O)N(CCCC(F)(F)F)c3sc4ccccc4c3C)c2)n1` [Compound 354, N-(3-Methyl-benzo[b]thiophen-2-yl)-N-(4,4,4-trifluoro-butyl)-3-(2-methyl-pyrimidin-4-yl)-benzenesulfonamide], the IC50 under setting [1] was found to be 106 nM. In addition, under setting [2], the inhibition at 0.2 µM was 87%.

With `O=S(=O)(c1ccsc1)N(Cc1ccc(F)c(C(F)(F)F)c1)c1sc2ccccc2c1Cl` [Compound 187, N-(3-Chloro-benzo[b]thiophen-2-yl)-N-(4-fluoro-3-trifluoromethyl-benzyl)-thien-3-yl-sulfonamide], the IC50 under setting [1] turned out to be 6 nM. Under setting [2], the inhibition at 0.2 µM turned out to be 100%.

For the molecule “N-(3-Methyl-benzo[b]thiophen-2-yl)-N-(cyclopropyl-ethyl)-4-morpholino-3-pyridyl-sulfonamide [Compound 798]”, the “% Inh @ 0.2 (μM)” value under setting [3] is listed as 102%. Moreover, the IC50 under setting [4] was 35.9 nM.

For the molecule `O=c1[nH]c(-c2ccc(S(=O)(=O)N(Cc3ccc(F)c(C(F)(F)F)c3)c3sc4ccccc4c3Br)cc2)no1` [Compound 511, N-(3-Bromo-benzo[b]thiophen-2-yl)-N-(4-fluoro-3-trifluoromethyl-benzyl)-4-(5-oxo-4,5-dihydro-[1,2,4]oxadiazol-3-yl)-benzenesulfonamide], the IC50 under setting [1] turned out to be 3 nM. Further, the inhibition at 0.2 µM under setting [2] turned out to be 101%.

`CCCCN(c1sc2ccccc2c1Cl)S(=O)(=O)NC` [Compound 553, N-(3-Chloro-benzo[b]thiophen-2-yl)-N-(butyl)-N′-methyl-sulfamide]: the inhibition at 0.2 µM under setting [2] was 38.7%.

For `C=CCN(c1cc2ccccc2s1)S(=O)(=O)c1ccccc1` [Compound 116, N-(Allyl)-N-(benzo[b]thiophen-2-yl)-benzenesulfonamide], the IC50 under setting [1] was 102 nM. For the same molecule, the inhibition at 0.5 µM under setting [5] is 98%.

In the case of `CCS(=O)(=O)N(CC(F)F)c1sc2ccccc2c1Br` [Compound 263, N-(3-Bromo-benzo[b]thiophen-2-yl)-N-(2,2-difluoro-ethyl)-ethanesulfonamide], under setting [1], the concentration for half-maximal inhibition (IC50) turned out to be 203 nM. For the same molecule, the inhibition at 0.2 µM under setting [2] turned out to be 52%.

As for `O=C(O)c1ccc(S(=O)(=O)N(Cc2ccc(F)c(C(F)(F)F)c2)c2cc3ccccc3s2)c(F)c1` [Compound 686, N-(Benzo[b]thiophen-2-yl)-N-(4-fluoro-3-trifluoromethyl-benzyl)-2-fluoro-4-carboxy-benzenesulfonamide], the IC50 under setting [1] is 4.7 nM. Also, the inhibition at 0.2 µM under setting [2] worked out at 105%.

As to `O=c1[nH]c(-c2ccc(S(=O)(=O)N(CCC(F)(F)F)c3sc4ccccc4c3Br)cc2)no1` [Compound 608, N-(3-Bromo-benzo[b]thiophen-2-yl)-N-(3,3,3-trifluoro-propyl)-4-(5-oxo-4,5-dihydro-[1,2,4]oxadiazol-3-yl)-benzenesulfonamide], under setting [2], the inhibition at 0.2 µM came to 101%.

In the case of `CCS(=O)(=O)N(Cc1ccc(F)c(C(F)(F)F)c1)c1sc2ccccc2c1C(C)O` (stereo not shown) [Compound 220, N-(4-Fluoro-3-trifluoromethyl-benzyl)-N-[3-(1-hydroxy-ethyl)-benzo[b]thiophen-2-yl]-ethanesulfonamide], the IC50 under setting [1] was determined as 1.2 nM. The inhibition at 0.2 µM under setting [2] was found to be 98%. In addition, the inhibition at 0.5 µM under setting [5] came out at 99%.

Take `COC(=O)c1cccc(S(=O)(=O)N(Cc2ccc(F)c(C(F)(F)F)c2)c2sc3ccccc3c2Br)c1` [Compound 193, N-(3-Bromo-benzo[b]thiophen-2-yl)-N-(4-fluoro-3-trifluoromethyl-benzyl)-3-carbomethoxy-benzenesulfonamide]: under setting [1], the IC50 amounted to 14.5 nM. For the same molecule, the inhibition at 0.2 µM under setting [2] was found to be 101%.

Regarding `Cc1c(N(CCOC(C)(C)C)S(=O)(=O)c2ccc(C(=O)O)cc2)sc2ccccc12` [Compound 401, N-(3-Methyl-benzo[b]thiophen-2-yl)-N-(2-tert-butoxy-ethyl)-4-carboxy-benzenesulfonamide], the IC50 under setting [1] worked out at 5 nM. For the same molecule, the inhibition at 0.2 µM under setting [2] was found to be 91%.

Consider `Cc1c(N(Cc2ccc(F)c(F)c2)S(=O)(=O)c2cccc(F)c2)sc2ccccc12` [Compound 127, N-(3,4-Difluoro-benzyl)-N-(3-methyl-benzo[b]thiophen-2-yl)-3-fluoro-benzenesulfonamide], for which the IC50 under setting [1] amounted to 8 nM. Besides, the inhibition at 0.5 µM under setting [5] was determined as 98%.

With `COCCN(c1sc2ccccc2c1C)S(=O)(=O)c1ccccc1` [Compound 99, N-(2-Methoxy-ethyl)-N-(3-methyl-benzo[b]thiophen-2-yl)-benzenesulfonamide], the IC50 under setting [1] was 18 nM. In addition, the inhibition at 0.2 µM under setting [2] was 99%.

With `Cc1c(N(Cc2ccc(F)c(C(F)(F)F)c2)S(=O)(=O)c2ccc(-c3nnn[nH]3)cc2)sc2ccccc12` [Compound 542, N-(3-Methyl-benzo[b]thiophen-2-yl)-N-(4-fluoro-3-trifluoromethyl-benzyl)-4-(1H-tetrazol-5-yl)-benzenesulfonamide], the IC50 under setting [1] amounted to 2.3 nM. Besides, the inhibition at 0.2 µM under setting [2] was 105%.

Turning to `Cc1c(N(CCC2CC2)S(=O)(=O)c2ccc(-c3nsc(=O)[nH]3)cc2)sc2ccccc12` [Compound 641, N-(3-Methyl-benzo[b]thiophen-2-yl)-N-(cyclopropyl-ethyl)-4-(5-oxo-4,5-dihydro-[1,2,4]thiadiazol-3-yl)-benzenesulfonamide], the IC50 under setting [1] came to 14 nM. The inhibition at 0.2 µM under setting [2] came to 103%.

`CCCCN(c1sc2ccccc2c1Br)S(=O)(=O)CC` [Compound 261, N-(3-Bromo-benzo[b]thiophen-2-yl)-N-(butyl)-ethanesulfonamide]: under setting [1], the IC50 worked out at 12.6 nM. Under setting [2], the inhibition at 0.2 µM was determined as 97%.

Take `Cc1c(N(Cc2ccc(OC(F)(F)F)cc2)S(=O)(=O)c2cnccc2-c2noc(=O)[nH]2)sc2ccccc12` [Compound 808, N-(3-Methyl-benzo[b]thiophen-2-yl)-N-(4-trifluoromethoxy-benzyl)-4-(5-oxo-4,5-dihydro-[1,2,4]oxadiazol-3-yl)-pyrid-3-ylsulfonamide]: the IC50 under setting [4] was determined as 0.7 nM.

With `COc1cccc(S(=O)(=O)N(Cc2ccc(F)c(C(F)(F)F)c2)c2sc3ccccc3c2Br)c1` [Compound 185, N-(3-Bromo-benzo[b]thiophen-2-yl)-N-(4-fluoro-3-trifluoromethyl-benzyl)-3-methoxy-benzenesulfonamide], under setting [1], the concentration for half-maximal inhibition (IC50) amounted to 6.4 nM. Further, under setting [2], the inhibition at 0.2 µM is 102%.

Consider `Cc1c(N(CC2CCCN2C(=O)OC(C)(C)C)S(=O)(=O)c2ccccc2)sc2ccccc12` (stereo not shown) [Compound 103, N-(3-Methyl-benzo[b]thiophen-2-yl)-N-{[1-(carbo-tert-butoxy)pyrrolidin-2-yl]-methyl}-benzenesulfonamide], for which the IC50 under setting [1] was found to be 90.8 nM. Moreover, the inhibition at 0.2 µM under setting [2] amounted to 80%.

Take `Cc1c(N(CCCC(F)(F)F)S(=O)(=O)c2ccccc2)sc2ccccc12` [Compound 616, N-(3-Methyl-benzo[b]thiophen-2-yl)-N-(4,4,4-trifluoro-butyl)-benzenesulfonamide]: the IC50 under setting [1] was determined as 12.8 nM. In addition, the inhibition at 0.2 µM under setting [2] stood at 101%.

Consider `O=S(=O)(c1ccsc1)N(Cc1ccc(F)c(C(F)(F)F)c1)c1cc2ccccc2s1` [Compound 78, N-(Benzo[b]thiophen-2-yl)-N-(4-fluoro-3-trifluoromethyl-benzyl)-thiophene-3-sulfonamide], for which the IC50 under setting [1] was 22.5 nM. Further, under setting [2], the inhibition at 0.2 µM was determined as 102%.

Turning to `CCS(=O)(=O)N(Cc1ccc(F)c(OC)c1)c1sc2ccccc2c1C(C)O` (stereo not shown) [Compound 827, N-(4-Fluoro-3-methoxybenzyl)-N-[3-(1-hydroxyethyl)-benzo[b]thiophen-2-yl]-ethanesulfonamide], the inhibition at 0.2 µM under setting [3] is 101%. Further, the IC50 under setting [4] was 6.6 nM.

Take `CCCCN(c1sc2ccccc2c1Br)S(=O)(=O)c1ccc(N2CCOCC2)cc1` [Compound 559, N-(3-Bromo-benzo[b]thiophen-2-yl)-N-(butyl)-4-morpholine-benzenesulfonamide]: under setting [1], the IC50 was 3.2 nM. Further, the “% Inh @ 0.2 (μM)” value under setting [2] came to 104.59%.
